Data reported in patent US11242539B2, “Elite event EE-GM4 and methods and kits for identifying such event in biological samples” (priority 2016, dated 2022).

System: soybean plants containing event EE-GM4
Assay: HPPD inhibitor herbicide tolerance field trials (maximum phytotoxicity)
Format: in vivo, Glycine max
Conditions: for tolerance of plants with EE-GM4 to herbicide: field; for average maximum phytotoxicity value: several field trials across 2 years
From the text: Numbers in ( ) below a treatment give the number of trials included in the bar, the number on top of each bar gives the average maximum phytotoxicity value for that treatment. Treatments applied were: IFT=isoxaflutole, MST=mesotrione, PE=pre-emergence, PO=post-emergence (at V2-V3 stage, with adjuvants crop oil concentrate and ammonium sulfate added to increase herbicide activity). Rates shown are in gram active ingredient/hectare (4× dose in pre-emergence, 2× dose in post-emergence).
Tolerance of plants comprising EE-GM4 to HPPD inhibitor herbicides was tested at different locations in the field over 2 years. […] All post-emergence treatments were at the V2-V3 stage, with adjuvants crop oil concentrate and ammonium sulfate added to increase herbicide activity.
The “maximum phytotoxicity” as used herein is the highest phytotoxicity rating recorded at any observation during the duration of a trial (with 3 to 4 observations per trial). In existing weed control applications, a normal (lx) dose for isoxaflutole (IFT) in pre- or post-emergence application and for MST in post-emergence application is 105 gr/ha, and a normal (1×) dose for mesotrione in pre-emergence application is 210 gr/ha.
Also, in several field trials across 2 years, soybean plants with event EE-GM4 had good tolerance towards experimental HPPD inhibitor compound 2-methyl-N-(5-methyl-1,3,4-oxadiazol-2-yl)-3-(methylsulfonyl)-4-(trifluoromethyl)benzamide (U.S. Pat. No. 9,101,141) when applied pre-emergence at 400 gr ai/ha or post-emergence at 200 gr ai/ha, respectively (the average maximum phytotoxicity value for each treatment was below 20%). […] All post-emergence treatments were at the V2-V3 stage, with adjuvants crop oil concentrate and ammonium sulfate added to increase herbicide activity.

[1] = applied post-emergence at V2-V3 stage with crop oil concentrate and ammonium sulfate, over 2 years
[2] = applied pre-emergence, different locations over 2 years

SMILES	tolerance of plants with EE-GM4 to herbicide [1]	tolerance of plants with EE-GM4 to herbicide [2]	average maximum phytotoxicity (post-emergence at 100-150 gr ai/ha, V2-V3 stage with adjuvants) [%]	average maximum phytotoxicity value (post-emergence at 200 gr ai/ha, V2-V3 stage with adjuvants)	average maximum phytotoxicity value (pre-emergence at 400 gr ai/ha)
CS(=O)(=O)c1ccc(C(=O)C2C(=O)CCCC2=O)c([N+](=O)[O-])c1 [mesotrione, 2-[4-(Methylsulfonyl)-2-nitrobenzoyl]cyclohexane-1,3-dione]	commercially relevant tolerance	commercially relevant tolerance			
CSc1c(C(F)(F)F)ccc(C(=O)Nc2nnnn2C)c1Cl [2-chloro-3-(methylsulfanyl)-N-(1-methyl-1H-tetrazol-5-yl)-4-(trifluoromethyl)benzamide]			30		
Cc1nnc(NC(=O)c2ccc(C(F)(F)F)c(S(C)(=O)=O)c2C)o1 [2-methyl-N-(5-methyl-1,3,4-oxadiazol-2-yl)-3-(methylsulfonyl)-4-(trifluoromethyl)benzamide]				below 20%	below 20%
CS(=O)(=O)c1cc(C(F)(F)F)ccc1C(=O)c1cnoc1C1CC1 [isoxaflutole, (5-cyclopropyl-4-isoxazolyl)[2-(methylsulfonyl)-4-(trifluoromethyl)phenyl]methanone]	crop damage was a bit higher	commercially relevant tolerance			
